Like-named read-outs stand apart in the source and are kept apart here.

The target in one data set is T1, trypsin (Sus scrofa, UniProt P00761).
T1 construct: purchased Thermo Pierce
The experiment in a line: In vitro trypsin resistance assay. Format: in vitro ADME. To be noted: 10 μg/mL trypsin, 37° C. As to the method: (§1) DAC protease stability assays. DAC peptide protease degradation kinetics were determined with Thermo Pierce™ MS-Grade Trypsin or Chymotrypsin Protease in PBS or TBS with 5 mM DTT and 2 mM CaCl2. Protease (1 eq) was added to buffer for a final assay concentration of 10 μg/mL trypsin or 0.5 μg/mL chymotrypsin. Each respective reaction mixture was then added to either 1 wt and 1a (2000 eq) or 4 wt and 4a (10,000 eq). Samples were then incubated at 37° C., 1,000 rpm. 5 min, 10 min, 30 min, 2 hr, and 4 hr time points were quenched in an equal volume of 2% TFA/H2O on ice. After 5 min, samples were centrifuged for 2 min at 17,000 rcf to precipitate quenched trypsin. Supernatant solutions were then analyzed and intact peptide quantified by LC-MS or Q-TOF.

Another data set addresses T2, ERα (Homo sapiens, UniProt P03372).
T2 construct: Wildtype and Y537S 6×His-TEV-ERα (residues 300-550) in pET21a(+) was expressed in E. coli BL21(DE3); 6×His-TEV (N, cleaved yes); made in house; host or cells: E. coli BL21(DE3)
T2 sequence (P03372 300-550): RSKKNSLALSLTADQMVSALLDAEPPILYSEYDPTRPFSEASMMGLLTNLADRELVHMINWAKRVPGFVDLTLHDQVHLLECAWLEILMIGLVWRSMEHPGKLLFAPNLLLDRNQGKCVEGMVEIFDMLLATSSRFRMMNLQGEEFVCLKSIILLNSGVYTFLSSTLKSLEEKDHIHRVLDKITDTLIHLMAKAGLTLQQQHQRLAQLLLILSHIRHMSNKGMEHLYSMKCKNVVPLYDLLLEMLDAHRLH
The experiment in a line: Competitive fluorescence polarization (FP) binding assay of DAC-SRC2 peptides. The protocol: Competitive fluorescence polarization (FP) assay. […] Plates were incubated at 4° C. for 1 hr, imaged using standard FP assay settings at 30° C., and data analyzed as previously described.
Background: Fluorescence polarisation rises when a labelled molecule tumbles more slowly, as on binding a larger partner.

For the next data set, the target named is T3, chymotrypsin (Bos taurus, UniProt P00766).
T3 construct: purchased Thermo Pierce
The experiment in a line: In vitro chymotrypsin resistance assay. Format: in vitro ADME. The settings on record: 0.5 μg/mL chymotrypsin, 37° C. As to the method: as §1

T1 sequence (P00761 9-231): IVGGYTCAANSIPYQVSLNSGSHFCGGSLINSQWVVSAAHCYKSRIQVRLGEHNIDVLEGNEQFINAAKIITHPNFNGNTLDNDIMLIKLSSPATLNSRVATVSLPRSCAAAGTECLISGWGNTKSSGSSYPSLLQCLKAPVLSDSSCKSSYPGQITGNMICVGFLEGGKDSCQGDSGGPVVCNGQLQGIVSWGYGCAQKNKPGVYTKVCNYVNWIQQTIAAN

As to `CC(=O)N[C@H]1CSCC2C=CC(C)C3C(=O)N(CC(=O)NCCCC[C@@H](C(N)=O)NC(=O)[C@H](CC(=O)O)NC(=O)CNC(=O)[C@H](CCCNC(=N)N)NC1=O)C(=O)C23` (some centres unmarked) [1a, CHexRGDKMal], the degradation by trypsin result at trypsin was “extended half-life”. Usually Ki stands for a dissociation constant, usually derived from enzyme kinetics or from competition with a known ligand. A word on the IC50: it is the midpoint of a concentration-inhibition curve. In the case of `CC[C@H](C)[C@H](NC(=O)[C@H](CCCCN)NC(=O)[C@H](Cc1c[nH]cn1)NC(C)=O)C(=O)N[C@@H](CC(C)C)C(=O)N[C@@H](Cc1c[nH]cn1)C(=O)N[C@H]1CCCCNC(=O)CN2C(=O)C3C4C=CC(C[C@@H](C(=O)N[C@@H](CO)C(N)=O)NC(=O)[C@H](CCC(N)=O)NC(=O)[C@H](CC(C)C)NC(=O)[C@H](CC(C)C)NC1=O)(O4)C3C2=O` (some centres unmarked) [7a], at ERα (calculated from competitive FP assay, ERα, value (± s.e.m.)), the Ki is 210 nM. The IC50 on ERα (competing a fluorescein-linked SRC2 peptide off of ERα, read-out: IC50 (approximate)) was approximately 500 nM; on ERα (competitive FP, wildtype ERα, fluorescein-labeled SRC peptide tracer, value (± s.e.m.), read-out: IC50), 480 nM. As for Ac-CAVPAVYK-NH2 [4 wt], the degradation by chymotrypsin entry at chymotrypsin is “degraded more rapidly than 4a”.

(Values after patent US12209143B2, “Versatile peptide and protein macrocyclization and multimerization with diels-alder cycloadditions” (The University of Chicago, priority 2019, dated 2025).)
